This is an account of results in publication PMC4231793 (Biology of blood and marrow transplantation : journal of …, 2012).

A word on the CL/F: it is the apparent clearance, not corrected for the fraction that reaches the circulation. Usually AUC(0-t) stands for exposure summed from dosing to a finite time, without extrapolation to infinity. Higher therefore signals high exposure. For orientation: Tmax means the time at which the peak concentration occurs. The Vd/F is the apparent distribution volume after extravascular dosing.

Where “and” joins values, the source holds several entries; their conditions need not be identical. Identical values can stand only once. Like-named read-outs stand apart in the source and are kept apart here.

One series has as its system CYP3A4. To be noted: compared with itraconazole, voriconazole, and posaconazole; ref [7],[23]; cited from earlier work.
Series [1] is classed as in vivo, human.
Series [2] in a line: Population pharmacokinetic analysis. The series is classed as in vivo, human.
Series [3] in a line: Noncompartmental pharmacokinetic analysis of whole-blood sirolimus. The series is classed as in vivo, human. To be noted: for concentration at 0 h: Co (trough concentration prior to oral dosing).
For series [4] the following is noted: ref [10], cited from earlier work.
The conditions of series [5]: cited from earlier work; for AUC0–24: ref [9],[14]; for Half-life: ref [9]; for t1/2: pediatric renal transplant patients, every-12-hour schedule, calcineurin inhibitor-free protocol, ref [8].
Where [6] appears, read: human, whole blood, oral, 2.5 mg/m^2/day.
Where [7] appears, read: population estimate ± standard error.
The mark [8] stands for this setting: patients receiving concomitant fluconazole (i.v. or oral).
The mark [9] stands for this setting: at 180 days, sirolimus, tacrolimus and methotrexate GVHD prophylaxis.
Where [10] appears, read: of 63 subjects in the clinical study, sirolimus with tacrolimus.

For `OC(Cn1cncn1)(Cn1cncn1)c1ccc(F)cc1F` [Fluconazole], in the series with CYP3A4, the “In vitro CYP3A4 inhibition, rank among azoles” value is “weakest in vitro inhibitor of CYP3A4”.

`CO[C@H]1C[C@@H]2CC[C@@H](C)[C@@](O)(O2)C(=O)C(=O)N2CCCC[C@H]2C(=O)O[C@H]([C@H](C)C[C@@H]2CC[C@@H](O)[C@H](OC)C2)CC(=O)[C@H](C)/C=C(\C)[C@@H](O)[C@@H](OC)C(=O)[C@H](C)C[C@H](C)/C=C/C=C/C=C/1C` [sirolimus, Sirolimus]: the “Share of sirolimus whole-blood concentrations >12 ng/mL” value in series [1] (above target range) is recorded as 12%. The “Share of sirolimus whole-blood concentrations <3 ng/mL” value in series [1] (below target range) is recorded as 9%. In addition, the “Share of sirolimus whole-blood (trough) concentrations within target range” value in series [1] (target range 3–12 ng/mL, with therapeutic drug monitoring) was determined as 79%. Moreover, the “Clearance (Cl/F), population estimate” value in series [2] (37 patients, 333 concentrations, estimate ± standard error) was 6.66 ± 1.10 L/h. Moreover, the CL/F in series [2] (setting [6]) is 2.83 mL/min/kg; in series [3] (setting [6]), 3.17 mL/min/kg. In series [2] (setting [6]), this molecule returned a Vd of 26.9 ± 7.7 L. Moreover, in series [2] (setting [7]), the “Absorption rate constant (ka)” value was 0.0535 ± 0.0104 h⁻¹. Moreover, the “Intercompartment clearance (Q)” value in series [2] (setting [7]) is on record as 4.62 ± 2.00 L/h. In addition, the “Volume of distribution of peripheral compartment (Vp)” value in series [2] (setting [7]) is reported as 630 ± 171 L. For the same molecule, the concentration at 24 h in series [3] (human, whole blood, iv, 2.5 mg/m^2/day, C24 trough concentration, patients who developed grade III–IV aGVHD (n = 10), mean ± SD) was found to be 6.1 ± 2.9 ng/mL; in series [3] (human, whole blood, oral, 2.5 mg/m^2/day, C24 (trough concentration at 24 hours after oral dosing), i.v. Fluconazole (n = 16), mean ± SD (range)) it was 10 ng/mL; in series [3] (human, whole blood, oral, 2.5 mg/m^2/day, C24 trough concentration, patients with grade 0-II aGVHD (n = 22), mean ± SD), 9.4 ± 5.5 ng/mL; in series [3] (human, whole blood, po, 2.5 mg/m^2/day, C24 (trough concentration at 24 hours after oral dosing), All (n = 33), mean ± SD (range)), 9.1 ± 5.3 ng/mL; in series [3] (human, whole blood, po, 2.5 mg/m^2/day, C24 (trough concentration at 24 hours after oral dosing), No Fluconazole (n = 11), mean ± SD (range)), 8 ng/mL; in series [3] (human, whole blood, po, 2.5 mg/m^2/day, C24 (trough concentration at 24 hours after oral dosing), Oral Fluconazole (n = 6), mean ± SD (range)), 8.6 ng/mL. The molecule further came in with an AUC(0-t) in series [3] (setting [6]) of 401 ± 316 ng·h/mL. For the same molecule, the Tmax in series [3] (setting [6]) worked out at 3.3 ± 1.6 h. Also, the Vd/F in series [3] (setting [6]) came out at 5.78 ± 5.7 L/kg. Also, the concentration at 0 h was 8 ng/mL in series [3] (human, whole blood, oral, 2.5 mg/m^2/day, i.v. Fluconazole (n = 16), mean ± SD (range)); 8 ± 4.6 ng/mL in series [3] (human, whole blood, po, 2.5 mg/m^2/day, All (n = 33), mean ± SD (range)); 6.8 ng/mL in series [3] (human, whole blood, po, 2.5 mg/m^2/day, No Fluconazole (n = 11), mean ± SD (range)); 11 ng/mL in series [3] (human, whole blood, po, 2.5 mg/m^2/day, Oral Fluconazole (n = 6), mean ± SD (range)). Moreover, the Half-life in series [3] (human, whole blood, oral, 2.5 mg/m^2/day, Mean t1/2, patients age ≤12 years) is 21.8 h; in series [5] (pediatric liver transplant recipients on sirolimus and tacrolimus) it was 21.2 ± 14.1 h; in series [5] (small bowel transplant recipients on sirolimus and tacrolimus), 19.3 ± 5.6 h. In addition, in series [3] (n = 33, not significantly greater than 0 (P = .75)), the “Difference between trough concentrations (C24 - C0)/C24, average” value is reported as 10.3%. Moreover, the “Dose-normalized C24” value in series [3] (patients not receiving fluconazole) was 2.5 ± 1.7 ng/mL/mg and 2.51 ± 1.72 ng/mL/mg; in series [3] (setting [8]), 4.8 ± 3.3 ng/mL/mg and 4.8 ± 3.34 ng/mL/mg. In addition, in series [3] (setting [8]), the “Dose-normalized C0” value was 3.9 ± 2.5 ng/mL/mg and 3.93 ± 2.5 ng/mL/mg. For the same molecule, the C24 trough concentration in series [3] (patients who developed grade III–IV aGVHD (n = 10), mean ± SD) is given as 6.11 ± 2.89 ng/mL; in series [3] (patients with grade 0-II aGVHD (n = 22), mean ± SD), 9.42 ± 5.52 ng/mL. The “Cumulative incidence of grade III–IV aGVHD” value in series [4] (setting [9]) was 21%. In addition, the “Cumulative incidence of grade II–IV aGVHD” value in series [4] (setting [9]) is on record as 38%. In series [4] (setting [10]), the “Subjects who developed thrombotic microangiopathy” value is recorded as 3 subjects. For the same molecule, the “Subjects who developed veno-occlusive disease of liver” value in series [4] (setting [10]) is 7 subjects. Also, the “AUC0–24” value is on record as 173 ± 50 ng·h/mL in series [5] (adult kidney transplant recipients), 168.3 ± 86.5 ng·h/mL in series [5] (pediatric liver transplant recipients) and 177.4 ± 72.1 ng·h/mL in series [5] (pediatric small bowel transplant recipients). Also, the t1/2 was 9.7 h in series [5] (1 month posttransplantation) and 10.8 h in series [5] (3 months posttransplantation).
